Values quoted from earlier work as cited in patent publication US20170014318A9, “Hair-growth-promoting solution containing chlorine dioxide, preparation methods and using methods thereof” (priority 2011, published 2017).

Key:
[1] = 276.5 mg/L aqueous solution
skin and eye mucous = conditions: solution containing 9.7 to 11.4 mg/L of chlorine dioxide
[2] = 276.5 mg/L aqueous solution; remark: listed apart in the source

Row | Compound | oral LD50 (mice) [mg/kg] | accumulated toxicity [1] | 48 hour skin and eye mucous irritating score (skin and eye mucous) | toxicity of aqueous solution [2]
1 | stable chlorine dioxide | > 10000 | – | – | –
2 | [O][Cl+][O-] [chlorine dioxide] | – | no significant accumulated toxicity | 0 | actually non-toxic
